Test results taken from publication PMC7998731, “Pharmacokinetic Characterization of Supinoxin and Its Physiologically Based Pharmacokinetic Modeling in Rats” (Pharmaceutics, 2021).

Experiment: Metabolic stability in rat liver microsomes
Assay type: in vitro ADME
Experimental: In these experiments, the metabolic stability of supinoxin in rat liver microsomes (BD Biosciences, San Jose, CA, USA) was determined. The microsomal reaction mixture comprised the follows: liver microsomal protein (final concentration of 0.5 mg protein per mL reaction mixture) and an NADPH regenerating solution (1.3 mM NADP+, 3.3 mM glucose-6-phosphate, 0.4 U/mL glucose-6-phosphate dehydrogenase, and 3.3 mM MgCl2) in a 100 mM potassium phosphate buffer with a pH of 7.4. After 5 min preincubation of the reaction mixture in a water bath at 37 °C, the reaction was initiated by the addition of a supinoxin solution to obtain a final concentration of 1 µM. Aliquots (50 µL) of the mixture were sampled at 5, 15, 30, and 60 min after the initiation of the reaction. The reaction was terminated by adding a stop solution (200 µL of ice-chilled acetonitrile) to the sample immediately after collection. After mixing by vortexing and centrifugation of the mixtures at 15,000× g for 5 min, an aliquot (150 µL) of the supernatant was analyzed by LC–MS/MS assay. In addition, the metabolic stability of supinoxin was determined in the presence of UDP glucuronic acid under similar reaction conditions, except that uridine 5′-diphosphoglucuronic acid was added instead of the NADPH regenerating solution. Finally, metabolic stability of supinoxin was tested in concentration range of 0.1–10 μM to confirm that the concentration used in the study (1 μM) was below the Km for the metabolic reaction. The amount of sample remaining was plotted against the reaction time to determine the metabolic rate constant of the reaction. Assuming that the substrate concentration was below the Km for the metabolic reaction, the intrinsic clearance was calculated as follows:(6) CLint= Aprotein×ke/fu,mic·Cprotein where Aprotein is the total amount of liver microsomal protein, ke is the metabolic rate constant of the reaction, fu,mic is the unbound fraction of the drug in the reaction mixture, and Cprotein is the microsomal protein concentration (mg/mL) in the reaction mixture. In this calculation, an Aprotein of 1790 mg of protein per kg for rats was used.
When necessary, the hepatic clearance of the compound was calculated using a well-stirred model as follows: (7) CLh= Q·CLint·fu,p/Q+CLint·fu,p/R where Q is the hepatic blood flow, fu,p is the unbound fraction of the drug in the plasma, and R is the blood-to-plasma partition ratio. In this calculation, a hepatic blood flow of 14.5 mL/min for 250 g rat was used, and the blood-to-plasma partition ratio was assumed to be 1.

- half-life at 1 µM (pH 7.4, rat liver microsomes, NADPH, 1 µM, read-out: NADPH-dependent metabolic half-life): 17.1 min
- CLint scaled at 1 µM (pH 7.4, rat liver microsomes, NADPH, 1 µM, read-out: intrinsic clearance (converted)): 233 mL/min/kg
- remaining amount at the end of the 60-min incubation (rat liver microsomes, NADPH, 1 µM): 12.7 ± 0.1 % of the initial
- remaining amount in UDPGA-dependent metabolic stability study (rat liver microsomes, UDPGA, 1 µM, 60 min): 92.2 ± 0.1%
- half-life versus concentration (rat liver microsomes, concentration ranges of 0.1–1 μM): remained constant
- hepatic clearance as share of the total in vivo clearance (vs average clearance of 0.5–5 mg/kg intravenous administration): 58.5%
- hepatic clearance (well-stirred model, from rat liver microsomal incubation): 7.38 mL/min/kg
SMILES: COc1cc(OC)cc(N2CCN(C(=O)Nc3nc4cc(F)ccc4nc3OC)CC2)c1 [supinoxin, 1-(3,5-Dimethoxyphenyl)-4-[(6-Fluoro-2-Methoxyquinoxalin-3-yl) Aminocarbonyl] Piperazine]
